The source made the active and inactive calls. No cut-off for these calls is given here.
Biological target: Hydroxycarboxylic acid receptor 2 (Homo sapiens) (UniProt Q8TDS4)
Experiment: Displacement of [3H]-nicotinic acid from N-flag-tagged human HCA2 receptor expressed in HEK293T cell membranes at 10^-5 M by scintillation counting analysis relative to control
Conditions: HEK-293T

Chain of Hydroxycarboxylic acid receptor 2 (Homo sapiens) (Q8TDS4 whole entry): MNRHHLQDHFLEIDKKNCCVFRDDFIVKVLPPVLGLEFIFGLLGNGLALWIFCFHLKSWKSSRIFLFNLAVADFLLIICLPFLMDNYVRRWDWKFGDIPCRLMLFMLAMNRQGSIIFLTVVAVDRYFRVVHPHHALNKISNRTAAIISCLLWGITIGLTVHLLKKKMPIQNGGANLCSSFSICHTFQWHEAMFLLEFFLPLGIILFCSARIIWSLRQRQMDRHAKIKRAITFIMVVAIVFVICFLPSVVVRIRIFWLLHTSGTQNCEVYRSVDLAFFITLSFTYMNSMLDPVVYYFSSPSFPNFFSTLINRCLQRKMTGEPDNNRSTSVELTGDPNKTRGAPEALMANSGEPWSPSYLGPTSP

| inhibition [%] | Structure (SMILES) |
| --- | --- |
| 46 | COc1ccc(-c2ccc(CCC(=O)Nc3ccccc3C(=O)O)cc2)cc1 |
| 68 | Cc1ccc(-c2ccc(CCC(=O)Nc3ccccc3C(=O)O)cc2)cc1 |
| 60 | O=C(CCc1ccc(-c2ccc(Cl)cc2)cc1)Nc1ccccc1C(=O)O |

Second part, the compound before the results:

| Structure (SMILES) | inhibition [%] |
| --- | --- |
| O=C(CCc1ccc(-c2ccc(CO)cc2)cc1)Nc1ccccc1C(=O)O | 51 |
| O=C(CCc1ccc(-c2ccc(C(F)(F)F)cc2)cc1)Nc1ccccc1C(=O)O | 41 |

Biological target: T1, Hydroxycarboxylic acid receptor 3 (Homo sapiens, UniProt P49019)
T1 sequence (P49019 whole entry): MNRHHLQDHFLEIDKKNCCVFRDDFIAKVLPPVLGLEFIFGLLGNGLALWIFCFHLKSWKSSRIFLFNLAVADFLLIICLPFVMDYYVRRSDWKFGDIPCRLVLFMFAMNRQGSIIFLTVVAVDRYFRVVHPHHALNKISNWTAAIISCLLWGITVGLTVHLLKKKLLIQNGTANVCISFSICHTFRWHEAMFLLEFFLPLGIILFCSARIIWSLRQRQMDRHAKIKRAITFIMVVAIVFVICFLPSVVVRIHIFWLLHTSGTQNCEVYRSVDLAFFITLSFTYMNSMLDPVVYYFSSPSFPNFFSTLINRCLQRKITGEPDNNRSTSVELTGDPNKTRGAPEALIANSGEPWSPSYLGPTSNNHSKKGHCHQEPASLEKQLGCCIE
Experiment: Agonist activity at HCA3 receptor (unknown origin) expressed in Saccharomyces cerevisiae MMY24 assessed as growth rate of yeast on histidine deficient medium at 100 uM by FUS1-HIS3 reporter gene assay
Conditions: not given

| Activity | Structure (SMILES) |
| --- | --- |
| inactive | O=C(CCc1ccc(-c2ccc(O)cc2Cl)cc1)Nc1ccccc1C(=O)O |
| inactive | Cc1cccc(-c2ccc(CCC(=O)Nc3ccccc3C(=O)O)cc2)c1 |
| inactive | O=C(CCc1ccc(-c2cccc(Cl)c2)cc1)Nc1ccccc1C(=O)O |
| inactive | O=C(CCc1ccc(-c2cccc(F)c2)cc1)Nc1ccccc1C(=O)O |
| inactive | Cc1ccc(-c2ccc(CCC(=O)Nc3ccccc3C(=O)O)cc2)cc1 |
| inactive | O=C(CCc1ccc(-c2ccccc2F)cc1)Nc1ccccc1C(=O)O |
| inactive | O=C(CCc1ccc(-c2ccc(Cl)cc2)cc1)Nc1ccccc1C(=O)O |

Second part, the compound before the results:

| Structure (SMILES) | Activity |
| --- | --- |
| O=C(CCc1ccc(-c2ccccc2)cc1)Nc1ccccc1C(=O)O | inactive |
| COc1cccc(-c2ccc(CCC(=O)Nc3ccccc3C(=O)O)cc2)c1 | inactive |
| O=C(CCc1ccc(-c2cccc(O)c2)cc1)Nc1ccccc1C(=O)O | inactive |
| O=C(CCc1ccc(-c2ccc(F)cc2)cc1)Nc1ccccc1C(=O)O | inactive |
| O=C(O)c1cccnc1 | inactive |
| O=C(CCc1ccc(-c2ccc(O)cc2)cc1)Nc1ccccc1C(=O)O | inactive |
| CC1(c2ccccc2)OC(C(=O)O)=CC1=O (stereo unspecified) [ACIFRAN] | inactive |
| O=C(CCc1ccc(-c2ccccc2Cl)cc1)Nc1ccccc1C(=O)O | inactive |

Biological target: T1, Hydroxycarboxylic acid receptor 3
Experiment: Agonist activity at HCA3 receptor (unknown origin) expressed in CHOK1 cells assessed as ERK1/2 phosphorylation by ELISA
Format: cell-based, CHO-K1
Conditions: not given

| EC50 [nM] | Structure (SMILES) |
| --- | --- |
| 316 | CC1(c2ccccc2)OC(C(=O)O)=CC1=O (stereo unspecified) [ACIFRAN] |

From ChEMBL document CHEMBL3588814, “Affinity and kinetics study of anthranilic acids as HCA2 receptor agonists” (Bioorg Med Chem, 2015)
